We go through five compounds from PMC8193492, “Yeast Cell-Based Transport Assay for the Functional Characterization of Human 4F2hc-LAT1 and ‐LAT2, and LAT1 and LAT2 Substrates and Inhibitors” (Frontiers in Molecular Biosciences, 2021).

The structures appear in SMILES notation. “And” between values parts separate entries of the source, which are not always exact repeats. Identical values can stand only once. Like-named read-outs stand apart in the source and are kept apart here.

The target of one assay is T1, human 4F2hc-LAT1 (Homo sapiens, UniProt Q01650).
T1 construct: expressed in transfected cells; host or cells: Pichia pastoris KM71H (pPICZB vector)
T1 sequence (Q01650 whole entry, one chain of several): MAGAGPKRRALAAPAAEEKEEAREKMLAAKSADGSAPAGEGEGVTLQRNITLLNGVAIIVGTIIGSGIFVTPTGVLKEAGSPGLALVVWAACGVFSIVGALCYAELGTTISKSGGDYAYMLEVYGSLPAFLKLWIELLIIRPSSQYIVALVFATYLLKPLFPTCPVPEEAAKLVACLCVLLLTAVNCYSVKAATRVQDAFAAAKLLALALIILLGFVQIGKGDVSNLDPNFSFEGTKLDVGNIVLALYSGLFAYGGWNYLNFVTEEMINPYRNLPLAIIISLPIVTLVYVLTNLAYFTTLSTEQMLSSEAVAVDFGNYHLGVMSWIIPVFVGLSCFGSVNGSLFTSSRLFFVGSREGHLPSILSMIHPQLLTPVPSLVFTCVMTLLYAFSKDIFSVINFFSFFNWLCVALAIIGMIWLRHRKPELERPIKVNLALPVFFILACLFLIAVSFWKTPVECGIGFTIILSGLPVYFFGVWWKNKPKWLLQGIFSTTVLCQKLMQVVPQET
Nature of the assay: [3H]L-leucine radioligand transport assay, P. pastoris cells expressing 4F2hc-LAT1. Type of assay: cell-based.

The target in assay [1] is T2, human 4F2hc-LAT2 (Homo sapiens, UniProt Q9UHI5).
T2 construct: expressed in transfected cells; host or cells: Pichia pastoris KM71H (pPICZB vector)
T2 sequence (Q9UHI5 1-535): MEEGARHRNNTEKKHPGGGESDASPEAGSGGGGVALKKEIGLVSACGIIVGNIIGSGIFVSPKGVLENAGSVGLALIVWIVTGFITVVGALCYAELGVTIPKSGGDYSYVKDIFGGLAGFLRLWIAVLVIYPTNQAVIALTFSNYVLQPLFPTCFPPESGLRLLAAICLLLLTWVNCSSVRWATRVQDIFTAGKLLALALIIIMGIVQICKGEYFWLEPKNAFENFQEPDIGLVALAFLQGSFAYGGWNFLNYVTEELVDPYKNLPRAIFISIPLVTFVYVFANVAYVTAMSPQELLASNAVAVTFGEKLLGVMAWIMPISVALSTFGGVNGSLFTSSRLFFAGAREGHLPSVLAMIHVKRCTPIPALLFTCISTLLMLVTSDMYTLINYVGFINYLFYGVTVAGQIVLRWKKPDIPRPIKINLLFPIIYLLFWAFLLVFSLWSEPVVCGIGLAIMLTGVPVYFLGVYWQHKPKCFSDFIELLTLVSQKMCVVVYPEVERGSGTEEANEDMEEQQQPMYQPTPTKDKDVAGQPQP
T2 sequence (P08195 1-529 partner): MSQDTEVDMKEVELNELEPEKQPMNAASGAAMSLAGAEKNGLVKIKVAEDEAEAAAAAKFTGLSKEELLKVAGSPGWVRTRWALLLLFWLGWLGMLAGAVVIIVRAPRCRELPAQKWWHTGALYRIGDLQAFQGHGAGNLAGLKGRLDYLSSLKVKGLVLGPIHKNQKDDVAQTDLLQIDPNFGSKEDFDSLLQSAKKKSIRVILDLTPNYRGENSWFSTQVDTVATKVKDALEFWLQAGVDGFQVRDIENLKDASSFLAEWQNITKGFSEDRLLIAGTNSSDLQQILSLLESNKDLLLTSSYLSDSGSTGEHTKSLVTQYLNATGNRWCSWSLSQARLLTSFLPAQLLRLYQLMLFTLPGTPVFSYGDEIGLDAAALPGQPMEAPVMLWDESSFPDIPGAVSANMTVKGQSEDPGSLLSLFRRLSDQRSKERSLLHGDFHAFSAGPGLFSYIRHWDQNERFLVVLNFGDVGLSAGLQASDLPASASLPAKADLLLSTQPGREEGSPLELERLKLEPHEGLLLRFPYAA
Nature of the assay: [3H]L-leucine radioligand transport assay, P. pastoris cells expressing 4F2hc-LAT2. Conditions: P. pastoris KM71H cells, OD600 0.75, 0.1 µM [3H]L-leucine, 10 min uptake, 25°C; read-out: IC50 of L-leucine uptake, 4F2hc-LAT2 (this work). Type of assay: cell-based.

In the next assay the target is T3, human LAT2 (Homo sapiens, UniProt Q9UHI5).
T3 construct: expressed in transfected cells; host or cells: Pichia pastoris KM71H (pPICZB vector)
T3 sequence (Q9UHI5 1-535): T2 sequence (Q9UHI5 1-535)
Description: [3H]L-leucine radioligand transport assay, P. pastoris cells expressing LAT2. Type of assay: cell-based. Conditions: P. pastoris KM71H cells, OD600 0.75, 0.1 µM [3H]L-leucine, 10 min uptake, 25°C.

For assay [2], the system named is 4F2hc-LAT1. Conditions: host Oocytes, cited from earlier work.
In assay [3] the target is 4F2hc-LAT1. The settings on record: cited from earlier work; for IC50: read-out: 4F2hc-LAT1 IC50 of L-leucine uptake.
For assay [4], the target named is T4, human LAT1 (Homo sapiens, UniProt Q01650). Nature of the assay: cell-based.
T4 sequence (Q01650 whole entry): as the sequence (Q01650 whole entry, one chain of several) above
Description: (§1) Resulting cells were resuspended in transport buffer (150 mM choline chloride, 1 mM MgCl2, 1 mM CaCl2, 10 mM Tris-HEPES, pH 7.4) containing 50% (v/v) glycerol and the OD600 was adjusted to 40. Cells were stored at −18°C until further use.
(§2) For transport studies, 1 ml of thawed P. pastoris cells (OD600 40) expressing the corresponding transporter were diluted in 50 ml transport buffer and pelleted by centrifugation (3,000 × g, 15 min, room temperature). The pellet was then washed by resuspending it in 50 mL transport buffer and by repeating the washing procedure (centrifugation and resuspension) two times. Finally, the cell pellet was resuspended in 2 ml of transport buffer and incubated for 20 min at 30°C under agitation (300 rpm, Multitron, Infors HT, Bottmingen, Switzerland). […] All transport experiments were performed in a reaction volume of 100 µL. […] The competitors were prepared in 100% (v/v) DMSO. The final DMSO concentration was always 0.5% (v/v), independently of which final substrate or inhibitor concentration was used in the assay. Control samples contained the same concentration of DMSO. Final OD600 values in uptake experiments were 0.75 for all cells (4F2hc-LAT1, LAT1, 4F2hc-LAT2 or LAT2 expressing cells) and untransformed P. pastoris KM71H cells. All transport reactions were done in 2 ml reaction tubes (Eppendorf, Hamburg, Germany) at 25°C under agitation (1,000 rpm, Thermomixer compact, Eppendorf, Hamburg, Germany). Uptakes were terminated after 10 min (uptake time) for all cells by adding 600 µL of pre-chilled transport buffer. Cells were rapidly separated from the buffer by transferring the stopped reactions on a 96-well 0.66 mm glass fiber filter plate (Corning FiltrEX, Corning, NY, United States) and vacuum filtration. Each well was washed with 2 ml of ice-cold transport buffer to remove free radioligand. The plate was then dried overnight at 37°C, and the backside was sealed with a BackSeal (PerkinElmer, Waltham, MA, United States). The trapped radioligand was released by addition of 200 µL scintillation cocktail (MicroScint 40, PerkinElmer, Waltham, MA, United States) to each well, and the plate topside was sealed with Topseal^TM-A Plus (PerkinElmer, Waltham, MA, United States), followed by incubation for 30 min at 25°C and 1,000 rpm (Thermomixer compact, Eppendorf, Hamburg, Germany). Counts were measured in each well for 2 min with a scintillation counter (TopCount NXT, PerkinElmer, Waltham, MA, United States).
(§3) Experiments were performed at least in triplicate. For data analysis, the signal of the untransformed P. pastoris cells was subtracted from the transporter signal to obtain the net transport signal. Data from three independent experiments were taken. […] Every experimental data point was then individually normalized using the corresponding upper plateau values (i.e., the fitted upper plateau value that corresponds to 100%). Single, normalized data points from the three independent experiments were averaged and a sigmoidal model curve was fitted to the data in order to obtain the IC50 values. Prism6 (GraphPad Software) was used for data analysis.
The test system of assay [5] is 4F2hc-LAT1. Set-up: method as in Kantipudi et al. (2020). The settings on record: host Pichia pastoris, ref Kantipudi et al. (2020), cited from earlier work.
Assay [6] concerns 4F2hc-LAT2. Details: method as in Kantipudi et al. (2020). Conditions: host Pichia pastoris, ref Kantipudi et al. (2020), cited from earlier work.
Assay [7] has as its system 4F2hc-LAT2. Details: method as in Pineda et al. (1999). The settings on record: host Oocytes; ref Pineda et al. (1999); cited from earlier work.
For assay [8], the target named is T4, human LAT1. The settings on record: Pichia cells expressing the light subunits alone.
Description: as §1, §2, §3
For assay [9], the system named is 4F2hc-LAT1. The settings on record: host Saos2, read-out: 4F2hc-LAT1 IC50 of L-leucine uptake, cited from earlier work.
In assay [10] the test system is 4F2hc-LAT1. Details: method as in Yun et al. (2014). Conditions: host YD-38; ref Yun et al. (2014); read-out: 4F2hc-LAT1 IC50 of L-leucine uptake; cited from earlier work.
Assay [11] has as its system 4F2hc-LAT1. Details: method as in Häfliger et al. (2018). Conditions: host HT-29; ref Häfliger et al. (2018); read-out: 4F2hc-LAT1 IC50 of L-leucine uptake; cited from earlier work.
For assay [12], the system named is 4F2hc-LAT1. Set-up: method as in Häfliger et al. (2018). Conditions: host SW1736; ref Häfliger et al. (2018); read-out: 4F2hc-LAT1 IC50 of L-leucine uptake; cited from earlier work.
The subject of assay [13] is 4F2hc-LAT1. Details: method as in Häfliger et al. (2018). The settings on record: host 8505c; ref Häfliger et al. (2018); read-out: 4F2hc-LAT1 IC50 of L-leucine uptake; cited from earlier work.
The subject of assay [14] is 4F2hc-LAT1. Set-up: method as in Yothaisong et al. (2017). The settings on record: host KKU-055; ref Yothaisong et al. (2017); read-out: 4F2hc-LAT1 IC50 of L-leucine uptake; cited from earlier work.
Assay [15] has as its system 4F2hc-LAT1. Details: method as in Yothaisong et al. (2017). Conditions: host KKU-213; ref Yothaisong et al. (2017); read-out: 4F2hc-LAT1 IC50 of L-leucine uptake; cited from earlier work.
Assay [16] deals with 4F2hc-LAT1. Details: method as in Yothaisong et al. (2017). Conditions: host KKU-100; ref Yothaisong et al. (2017); read-out: 4F2hc-LAT1 IC50 of L-leucine uptake; cited from earlier work.
For assay [17], the target named is T2, human 4F2hc-LAT2. The settings on record: cited from earlier work; for IC50: host S2 cells, read-out: 4F2hc-LAT2 IC50 of L-leucine uptake.
In assay [18] the test system is 4F2hc-LAT1. Set-up: method as in Kim et al. (2008). Conditions: host KB cells; ref Kim et al. (2008); read-out: 4F2hc-LAT1 IC50 of L-leucine uptake; cited from earlier work.
Assay [19] concerns 4F2hc-LAT1. Details: method as in Kim et al. (2008). The settings on record: host C6 cells; reference cell empty, line above: ref Kim et al. (2008); read-out: 4F2hc-LAT1 IC50 of L-leucine uptake; cited from earlier work.
In assay [20] the test system is 4F2hc-LAT1. Set-up: method as in Khunweeraphong et al. (2012). The settings on record: host HEK293; ref Khunweeraphong et al. (2012); read-out: 4F2hc-LAT1 IC50 of L-leucine uptake; cited from earlier work.
[21] abbreviates: P. pastoris KM71H cells, OD600 0.75, 0.1 µM [3H]L-leucine, 10 min uptake, 25°C, read-out: IC50 of L-leucine uptake, 4F2hc-LAT1 (this work).

Usually IC50 stands for the point on the concentration scale where inhibition reaches its midpoint. One may read the Km as the concentration of substrate that gives half-maximal velocity. What is called Ki is a measure of affinity in units of concentration, obtained from inhibition or displacement. For the compound `NC(Cc1cc(I)c(Oc2cc(I)c(O)c(I)c2)c(I)c1)C(=O)O` (stereo not shown) [T4, thyroxine], the concentration for half-maximal inhibition (IC50) on human 4F2hc-LAT1 was found to be 10 µM; on human 4F2hc-LAT2 [1] it was 42 µM; on human LAT2 it was 25 µM; on human LAT1 [4] it was 8 µM. At human 4F2hc-LAT1 (P. pastoris cell assay), the “specificity for 4F2hc-LAT1 compared with 4F2hc-LAT2 (from IC50s)” value was “about four-times higher”. Besides, the Km was 7.9 µM in the assay with 4F2hc-LAT1 [2] (ref Friesema et al. (2001)) and 6.3 µM in the assay on 4F2hc-LAT1 [2] (ref Ritchie et al. (1999)). The Ki on 4F2hc-LAT1 [3] (host S2 cells, ref Morimoto et al. (2008), read-out: 4F2hc-LAT1 Ki of L-leucine uptake) was 115 ± 2 µM.
On to `CC(C)C[C@H](N)C(=O)O` [L-leucine], for which the 50% inhibitory concentration (IC50) was 22 µM on human 4F2hc-LAT1 (setting [21]); 210 µM on human 4F2hc-LAT2 [1]; 39 µM at human LAT2; 38 µM in the assay with 4F2hc-LAT1 [5] (read-out: 4F2hc-LAT1 IC50 of L-leucine uptake); 221 µM in the assay on 4F2hc-LAT2 [6] (read-out: 4F2hc-LAT2 IC50 of L-leucine uptake); 9 µM against human LAT1 [4]. In addition, the Km with 4F2hc-LAT1 [5] (read-out: 4F2hc-LAT1 KM of L-leucine uptake) is 25 ± 3 µM; in the assay on 4F2hc-LAT1 [2] (ref Friesema et al. (2001)), 46 µM; in the assay with 4F2hc-LAT1 [2] (ref Kanai et al. (1998)), 18.1 ± 3.4 µM; in the assay on 4F2hc-LAT1 [2] (ref Yanagida et al. (2001)), 19.7 ± 4.1 µM; in the assay with 4F2hc-LAT2 [6] (read-out: 4F2hc-LAT2 KM of L-leucine uptake), 249 ± 22 µM; in the assay on 4F2hc-LAT2 [7], 220 µM.
As for `Nc1cc(COc2c(Cl)cc(C[C@H](N)C(=O)O)cc2Cl)c2oc(-c3ccccc3)nc2c1` [JPH203, (S)-2-amino-3-(4-((5-amino-2-phenylbenzo [d]oxazol-7-yl)-methoxy)-3,5-dichlorophenyl)-propanoic acid], the IC50 on human 4F2hc-LAT1 (setting [21]) was 0.197 µM; at human 4F2hc-LAT2 [1] it was 1.5 µM; at human LAT2, 1.7 µM; in the assay on 4F2hc-LAT1 [9] (ref Choi et al. (2017)), 1.31 ± 0.27 µM; in the assay on 4F2hc-LAT1 [10], 0.79 ± 0.06 µM; in the assay with 4F2hc-LAT1 [3] (host S2 cells, ref Endou et al. (2008)), 0.19 µM and 0.2 µM. Moreover, the IC50 is 0.14 µM with 4F2hc-LAT1 [3] (host S2 cells, ref Oda et al. (2010)); 0.134 µM with 4F2hc-LAT1 [11]; 0.177 µM with 4F2hc-LAT1 [12]; 0.12 µM in the assay with 4F2hc-LAT1 [13]; 0.2 ± 0.03 µM in the assay with 4F2hc-LAT1 [14]; 0.12 ± 0.02 µM in the assay on 4F2hc-LAT1 [15]. In addition, the IC50 is 0.25 ± 0.04 µM in the assay on 4F2hc-LAT1 [16], over 10 µM at human 4F2hc-LAT2 [17] (ref Oda et al. (2010)) and 0.346 µM on human LAT1 [4]. For the same compound, the “IC50(Pichia-4F2hc-LAT2)/IC50(Pichia-4F2hc-LAT1) ratio” value on human 4F2hc-LAT1 (P. pastoris cell assay) was “about 7.6”. Also, the “specificity for 4F2hc-LAT1 compared with 4F2hc-LAT2 (from IC50s)” value on human 4F2hc-LAT1 (P. pastoris cell assay) is “about 7.6 fold”. In addition, the “IC50(Pichia-LAT2)/IC50(Pichia-LAT1) ratio” value on human LAT1 [8] is given as “about 4.9”. Besides, the “IC50(S2-LAT2)/IC50(S2-LAT1) ratio” value in the assay with 4F2hc-LAT1 [3] (S2 cells, ref Oda et al. (2010)) is over 500. The “inhibition of human 4F2hc-LAT2” value at human 4F2hc-LAT2 [17] (S2 cell-based assay, at 10 µM, ref Endou et al. (2008)) is on record as “almost no inhibition”.
In the case of `N[C@@H](Cc1cc(I)c(Oc2ccc(O)c(I)c2)c(I)c1)C(=O)O` [T3, triiodothyronine], the Km in the assay on 4F2hc-LAT1 [2] (ref Friesema et al. (2001)) was 0.8 µM; in the assay on 4F2hc-LAT1 [2] (ref Ritchie et al. (1999)), 1.8 µM.
Take `NC1(C(=O)O)CC2CCC1C2` (stereo not shown) [BCH, 2-aminobicyclo-(2,2,1)-heptane-2-carboxylic acid]: the IC50 was 72 µM on human 4F2hc-LAT1 (setting [21]); 195 µM on human 4F2hc-LAT2 [1]; 184 µM on human LAT2; 72.2 ± 0.92 µM in the assay on 4F2hc-LAT1 [9] (ref Choi et al. (2017)); 78.8 ± 3.5 µM with 4F2hc-LAT1 [9] (ref Kim et al. (2008)); 75.3 ± 6.7 µM with 4F2hc-LAT1 [18]. Further, the IC50 is 73.1 ± 4.5 µM with 4F2hc-LAT1 [19]; 92.6 ± 8.9 µM with 4F2hc-LAT1 [10]; 78.3 ± 12.1 µM in the assay on 4F2hc-LAT1 [20]; 132 ± 27.8 µM in the assay with 4F2hc-LAT1 [3] (host S2 cells, ref Morimoto et al. (2008)); 315 ± 68.6 µM at human 4F2hc-LAT2 [17] (ref Morimoto et al. (2008)); 78 µM on human LAT1 [4]. Further, the “specificity for 4F2hc-LAT1 compared with 4F2hc-LAT2 (from IC50s)” value at human 4F2hc-LAT1 (P. pastoris cell assay) was “about 2.7 fold”.
